Results on eleven compounds are retold here after US11944605B2, “Rapamycin analogs and uses thereof” (Janssen Pharmaceutica NV, priority 2018, dated 2024).

Each structure is given as a SMILES string.

Assay [1] concerns pS6K1 (p-p70 S6 Kinase (Thr389)) in MCF-7 cells. Kind of assay: AlphaLISA Ultra pS6K1 Assay. The format is cell-based. The settings on record: Homo sapiens, 1.5 h; MCF7 cells, 90 min. Here is the method:
AlphaLISA Ultra pS6K1 Assay
1. Seed MCF-7 cells in Corning 3701 plate and incubate for 20˜24 hour. 12,000˜16,000 cells will be seeded in 36 μL medium per well.
2. Change the culture medium with fresh medium and incubate for another 2 hours.
3. Add 12 μL (4×) compounds into the cell plate by HAMILTON. Final DMSO concentration is 0.5%. Incubate for 90 minutes.
4. Aspirate […] by HAMILTON, 10 μL rest per well.
5. Add 10 μL 2× lysis buffer using HAMILTON; total volume in wells is 20 μL. Allow cells to shake for 30 min. Cover plate by plastic foil and store plate at −80° C. up to analysis.
6. Thaw cell lysate at RT and transfer 10 μL lysate to assay plate (Optiplate-384).
7. Add 5 μL acceptor beads into assay plate and incubation for 2 hours
8. Add 5 μL donor beads and incubation for 2 hours
9. Count the plate by EnSpire Multimode Plate Reader

For a further assay, the system named is mTORC1 over mTORC2. Kind of assay: mTORC1 selectivity over mTORC2 at 24 hrs (Western blot based pS6K1 and pAKT assay). The format is cell-based. The settings on record: 24 hrs. As for the experimental part:
Western Blot Based pS6K1 and pAKT Assay at 24 and 48 Hour Timepoints
1. Seed six well plate with 500,000 PC3 cells per well and incubate for 20˜24 hour.
2. Add compounds into the cell plate. Incubate for 24 to 48 hours.
4. Plate is placed on ice and the media is removed via aspiration. The wells are washed with 1 mL of 1× PBS and then fully aspirated.
5. 110 μL of 1% Triton Lysis Buffer is added and each well is scraped vigorously.
6. Cell homogenates are transferred to 1.5 mL eppendorf tubes on ice and spun down at 4° C. for 10 minutes at 10,000 rpm.
9. The membranes were washed 3× with TBS-T with a 5 minute incubation between each wash then incubated with secondary antibody (LiCor IRDye 800 Donkey Anti Rabbit) for at least 30 minutes.
10. The membranes were washed 3× with TBS-T with a 5 minute incubation between each wash.
11. The gels were then incubated for 5 minutes with PBS at room temperature then imaged using a Li-Cor.
“N/A” stands for “not assayed.”
A general note: A western blot detects proteins with antibodies after separation by electrophoresis.

What is called IC50 is the concentration needed to halve the response being measured.

The compound `CO[C@@H]1C[C@H](C[C@@H](C)[C@@H]2CC(=O)[C@H](C)/C=C(\C)[C@@H](O)[C@@H](OC)C(=O)[C@H](C)C[C@H](C)/C=C/C=C/C=C(\C)[C@H](OCC3COCCOCCOCCOCCO3)C[C@@H]3CC[C@@H](C)[C@@](O)(O3)C(=O)C(=O)N3CCCC[C@H]3C(=O)O2)CC[C@H]1O` (stereo partly drawn) [I-107, (30E,32E,34E,35E,38R,39S,40R,41R,43S,45S,47R,48S,50R,51R,60R)-50, 60-dihydroxy-48-[(1R)-2-[(1S,3R,4R)-4-hydroxy-3-methoxy-cyclohexyl]-1-methyl-ethyl]-51-methoxy-38, 39,40,41,52,53-hexamethyl-47-(1,4,7,10,13-pentaoxacyclopentadec-2-ylmethoxy)-75, 76-dioxa-61-azatricyclohexatriaconta-30,32,34(52),35(53)-tetraene-54,55,56,57,58-pentone] returned a half-maximal inhibitory concentration (IC50) in assay [1] not below 100 nM. Also, the “mTORC1 selective @ 24 hrs” value in the assay on mTORC1 over mTORC2 was “YES”. For `CO[C@@H]1C[C@H](C[C@@H](C)[C@@H]2CC(=O)[C@H](C)/C=C(\C)[C@@H](O)[C@@H](OC)C(=O)[C@H](C)C[C@H](C)/C=C/C=C/C=C(\C)[C@H](OCCOCCOCC(F)(F)F)C[C@@H]3CC[C@@H](C)[C@@](O)(O3)C(=O)C(=O)N3CCCC[C@H]3C(=O)O2)CC[C@H]1OCCO` [I-84] the same measures were 0.1 to 1 nM and “YES”. On to `CO[C@@H]1C[C@H](C[C@@H](C)[C@@H]2CC(=O)[C@H](C)/C=C(\C)[C@@H](O)[C@@H](OC)C(=O)[C@H](C)C[C@H](C)/C=C/C=C/C=C(\C)[C@H](OCC3COCCOCCOCCO3)C[C@@H]3CC[C@@H](C)[C@@](O)(O3)C(=O)C(=O)N3CCCC[C@H]3C(=O)O2)CC[C@H]1O` (stereo partly drawn) [I-111, (28E,30E,32E,33E,36R,37S,38R,39R,41S,43S,45R,46S,48R,49R,58R)-48, 58-dihydroxy-46-[(1R)-2-[(1S,3R,4R)-4-hydroxy-3-methoxy-cyclohexyl]-1-methyl-ethyl]-49-methoxy-36, 37,38,39,50,51-hexamethyl-45-(1,4,7,10-tetraoxacyclododec-2-ylmethoxy)-72,73-dioxa-59-azatricyclohexatriaconta-28, 30,32(50),33(51)-tetraene-52,53,54,55,56-pentone], for which, in assay [1], the IC50 was 1 to 10 nM. Moreover, the “mTORC1 selective @ 24 hrs” value with mTORC1 over mTORC2 is “YES”. Take `CO[C@@H]1C[C@H](C[C@@H](C)[C@@H]2CC(=O)[C@H](C)/C=C(\C)[C@@H](O)[C@@H](OC)C(=O)[C@H](C)C[C@H](C)/C=C/C=C/C=C(\C)[C@@H](OCCS(=O)(=O)CCS(=O)(=O)CCO)C[C@@H]3CC[C@@H](C)[C@@](O)(O3)C(=O)C(=O)N3CCCC[C@H]3C(=O)O2)CC[C@H]1O` [I-95, (21E,23E,25E,26E,34R,35S,36R,37R,39S,41S,43S,44S,45R,46R,55R)-45, 55-dihydroxy-43-[2-[2-(2-hydroxyethylsulfonyl)ethylsulfonyl]ethoxy]-44-[(1R)-2-[(1S,3R, 4R)-4-hydroxy-3-methoxy-cyclohexyl]-1-methyl-ethyl]-46-methoxy-34,35,36,37,47,48-hexamethyl-70, 71-dioxa-56-azatricyclohexatriaconta-21,23,25(47),26(48)-tetraene-49, 50,51,52,53-pentone]: in the assay on mTORC1 over mTORC2, the “mTORC1 selective @ 24 hrs” value is given as “YES”.

`CO[C@@H]1C[C@H](C[C@@H](C)[C@@H]2CC(=O)[C@H](C)/C=C(\C)[C@@H](O)[C@@H](OC)C(=O)[C@H](C)C[C@H](C)/C=C/C=C/C=C(\C)[C@H](OCCOCCOCCO)C[C@@H]3CC[C@@H](C)[C@@](O)(O3)C(=O)C(=O)N3CCCC[C@H]3C(=O)O2)CC[C@H]1OCCO` [I-109, (21E,23E,25E,26E,36R,37S,38R,39R,41S,43S,45R,46S,47R,48R,57R)-47, 57-dihydroxy-45-[2-[2-(2-hydroxyethoxy)ethoxy]ethoxy]-46-[(1R)-2-[(1S,3R, 4R)-4-(2-hydroxyethoxy)-3-methoxy-cyclohexyl]-1-methyl-ethyl]-48-methoxy-36,37,38,39,49,50-hexamethyl-68, 69-dioxa-58-azatricyclohexatriaconta-21,23,25(49),26(50)-tetraene-51,52,53,54,55-pentone]: in assay [1], the IC50 was 1 to 10 nM. Besides, the “mTORC1 selective @ 24 hrs” value with mTORC1 over mTORC2 is given as “YES”. The like results for `COCCOCCO[C@H]1C[C@@H]2CC[C@@H](C)[C@@](O)(O2)C(=O)C(=O)N2CCCC[C@H]2C(=O)O[C@H]([C@H](C)C[C@@H]2CC[C@@H](O)[C@H](OC)C2)CC(=O)[C@H](C)/C=C(\C)[C@@H](O)[C@@H](OC)C(=O)[C@H](C)C[C@H](C)/C=C/C=C/C=C/1C` [I-120, (22E,24E,26E,27E,33R,34S,35R,36R,38S,40S,43S,44R,45R,54R)-44, 54-dihydroxy-43-[(1R)-2-[(1S,3R,4R)-4-hydroxy-3-methoxy-cyclohexyl]-I-methyl-ethyl]-45-methoxy-42-[S-2-(2-methoxyethoxy)ethoxy]-33,34,35,36,46,47-hexamethyl-64,65-dioxa-55-azatricyclohexatriaconta-22, 24,26(46),27(47)-tetraene-48,49,50,51,52-pentone] were, in that order, less than 0.1 nM and “YES”. With `COCCOCCO[C@@H]1C[C@@H]2CC[C@@H](C)[C@@](O)(O2)C(=O)C(=O)N2CCCC[C@H]2C(=O)O[C@H]([C@H](C)C[C@@H]2CC[C@@H](O)[C@H](OC)C2)CC(=O)[C@H](C)/C=C(\C)[C@@H](O)[C@@H](OC)C(=O)[C@H](C)C[C@H](C)/C=C/C=C/C=C/1C` [I-119, (22E,24E,26E,27E,33R,34S,35R,36R,38S,40S,43S,44R,45R,54R)-44,54-dihydroxy-43-[(1R)-2-[(1S, 3R,4R)-4-hydroxy-3-methoxy-cyclohexyl]-1-methyl-ethyl]-45-methoxy-42-[R-2-(2-methoxyethoxy)ethoxy]-33, 34,35,36,46,47-hexamethyl-64,65-dioxa-55-azatricyclohexatriaconta-22, 24,26(46),27(47)-tetraene-48,49,50,51,52-pentone], the IC50 in assay [1] is less than 0.1 nM. In addition, the “mTORC1 selective @ 24 hrs” value with mTORC1 over mTORC2 is given as “YES”. On to `CO[C@@H]1CC(C[C@@H](C)C2CC(=O)[C@H](C)/C=C(\C)[C@@H](O)[C@@H](OC)C(=O)[C@H](C)C[C@H](C)/C=C/C=C/C=C(\C)C(OCCOCC(F)(F)F)C[C@@H]3CC[C@@H](C)[C@@](O)(O3)C(=O)C(=O)N3CCCC[C@H]3C(=O)O2)CC[C@H]1OCCO` (stereo partly drawn) [I-77, (21E,23E,25E,26E,33R,34S,35R,36R,38S,40S,43S,44R,45R,54R)-44, 54-dihydroxy-43-[(1R)-2-[(1S,3R,4R)-4-(2-hydroxyethoxy)-3-methoxy-cyclohexyl]-1-methyl-ethyl]-45-methoxy-33, 34,35,36,46,47-hexamethyl-42-[2-(2,2,2-trifluoroethoxy)ethoxy]-65,66-dioxa-56-azatricyclohexatriaconta-21, 23,25(46),26(47)-tetraene-48,49,50,51,52-pentone], for which the half-inhibitory concentration (IC50) in assay [1] is less than 0.1 nM. The “mTORC1 selective @ 24 hrs” value with mTORC1 over mTORC2 is listed as “YES”. For `COCCOCCO[C@@H]1C[C@@H]2CC[C@@H](C)[C@@](O)(O2)C(=O)C(=O)N2CCCC[C@H]2C(=O)O[C@H]([C@H](C)C[C@@H]2CC[C@@H](OCCO)[C@H](OC)C2)CC(=O)[C@H](C)/C=C(\C)[C@@H](O)[C@@H](OC)C(=O)[C@H](C)C[C@H](C)/C=C/C=C/C=C/1C` [I-104, (22E,24E,26E,27E,35R,36S,37R,38R,40S,42S,44R,45S,46R,47R,56R)-46, 56-dihydroxy-45-[(1R)-2-[(1S,3R, 4R)-4-(2-hydroxyethoxy)-3-methoxy-cyclohexyl]-1-methyl-ethyl]-47-methoxy-44-[2-(2-methoxyethoxy)ethoxy]-35,36,37,38,48,49-hexamethyl-66, 67-dioxa-57-azatricyclohexatriaconta-22,24,26(48),27(49)-tetraene-50,51,52,53,54-pentone] the same measures were 0.1 to 1 nM and “YES”. For `CO[C@@H]1C[C@H](C[C@@H](C)[C@@H]2CC(=O)[C@H](C)/C=C(\C)[C@@H](O)[C@@H](OC)C(=O)[C@H](C)C[C@H](C)/C=C/C=C/C=C(\C)[C@H](OCCOCCO)C[C@@H]3CC[C@@H](C)[C@@](O)(O3)C(=O)C(=O)N3CCCC[C@H]3C(=O)O2)CC[C@H]1OCCO` [I-116, (21E,23E,25E,26E,34R,35S,36R,37R,39S,41S,43R,44S,45R,46R,55R)-45, 55-dihydroxy-43-[2-(2-hydroxyethoxy)ethoxy]-44-[(1R)-2-[(1S,3R, 4R)-4-(2-hydroxyethoxy)-3-methoxy-cyclohexyl]-1-methyl-ethyl]-46-methoxy-34,35,36,37,47,48-hexamethyl-66,67-dioxa-56-azatricyclohexatriaconta-21, 23,25(47),26(48)-tetraene-49,50,51,52,53-pentone] the same measures were 0.1 to 1 nM and “YES”. For `COCCOCCO[C@@H]1C[C@@H]2CC[C@@H](C)[C@@](O)(O2)C(=O)C(=O)N2CCCC[C@H]2C(=O)O[C@H]([C@H](C)C[C@@H]2CC[C@@H](OCCOC)[C@H](OC)C2)CC(=O)[C@H](C)/C=C(\C)[C@@H](O)[C@@H](OC)C(=O)[C@H](C)C[C@H](C)/C=C/C=C/C=C/1C` [Compound I-89], the IC50 in assay [1] lay in the range of 1 to 10 nM.
